In publication PMC7073229, “Novel Quinoline Compounds Active in Cancer Cells through Coupled DNA Methyltransferase Inhibition and Degradation” (Cancers, 2020):

Experiments:
Assay in all cases: Kinase inhibitory assay (panel)
Assay type in all cases: biochemical
Details in all cases: read-out: % inhibition at 10 µM
Abl kinase (h) = Abl kinase (h) (Homo sapiens, UniProt P00519)
Description: (§1) Experimental procedure of kinase inhibitory assays
(§2) The test compound, reference compound or water (control) were mixed with the enzyme (for the exact amount see table below) in the appropriate buffer. Thereafter, the reaction was initiated by adding the required amount of the appropriate substrate and of ATP, and the mixture is incubated at room temperature (variable reaction time, see table below). For control basal measurements, the enzyme was omitted from the reaction mixture. Following incubation, the reaction was stopped by adding 13 mM
(§3) EDTA. After 5 min, the proper antibody labelled with europium chelate was added. After 60 more min, the fluorescence transfer was measured at λex=337 nm, λem=620 nm and λem=665 nm using a microplate reader (Envision, Perkin Elmer). The enzyme activity was determined by d ividing the signal measured at 665 nm by that measured at 620 nm (ratio). The results are expressed as a percent inhibition of the control enzyme activity. The standard inhibitory reference compound is staurosporine when not differently indicated (see tabl e below), which has been tested in each experiment at several concentrations to obtain an inhibition curve from which its IC 50 value is calculated.
(§4) • Assay volume and format: 10 µL in 384-well plate
(§5) • Compound addition: [100x] solution in solvent then [5x] solution in water • Maximum tolerable DMSO concentration: 1%

Akt1/PKBalpha (h) = Akt1/PKBalpha (h) (Homo sapiens, UniProt P31749)
Description: as §1, §2, §3, §4, §5

CHK1 (h) = CHK1 (h) (Homo sapiens, UniProt O14757)
Description: as §1, §2, §3, §4, §5

EGFR kinase (h) = EGFR kinase (h) (Homo sapiens, UniProt P00533)
Chain of EGFR kinase (h) (P00533 25-1210): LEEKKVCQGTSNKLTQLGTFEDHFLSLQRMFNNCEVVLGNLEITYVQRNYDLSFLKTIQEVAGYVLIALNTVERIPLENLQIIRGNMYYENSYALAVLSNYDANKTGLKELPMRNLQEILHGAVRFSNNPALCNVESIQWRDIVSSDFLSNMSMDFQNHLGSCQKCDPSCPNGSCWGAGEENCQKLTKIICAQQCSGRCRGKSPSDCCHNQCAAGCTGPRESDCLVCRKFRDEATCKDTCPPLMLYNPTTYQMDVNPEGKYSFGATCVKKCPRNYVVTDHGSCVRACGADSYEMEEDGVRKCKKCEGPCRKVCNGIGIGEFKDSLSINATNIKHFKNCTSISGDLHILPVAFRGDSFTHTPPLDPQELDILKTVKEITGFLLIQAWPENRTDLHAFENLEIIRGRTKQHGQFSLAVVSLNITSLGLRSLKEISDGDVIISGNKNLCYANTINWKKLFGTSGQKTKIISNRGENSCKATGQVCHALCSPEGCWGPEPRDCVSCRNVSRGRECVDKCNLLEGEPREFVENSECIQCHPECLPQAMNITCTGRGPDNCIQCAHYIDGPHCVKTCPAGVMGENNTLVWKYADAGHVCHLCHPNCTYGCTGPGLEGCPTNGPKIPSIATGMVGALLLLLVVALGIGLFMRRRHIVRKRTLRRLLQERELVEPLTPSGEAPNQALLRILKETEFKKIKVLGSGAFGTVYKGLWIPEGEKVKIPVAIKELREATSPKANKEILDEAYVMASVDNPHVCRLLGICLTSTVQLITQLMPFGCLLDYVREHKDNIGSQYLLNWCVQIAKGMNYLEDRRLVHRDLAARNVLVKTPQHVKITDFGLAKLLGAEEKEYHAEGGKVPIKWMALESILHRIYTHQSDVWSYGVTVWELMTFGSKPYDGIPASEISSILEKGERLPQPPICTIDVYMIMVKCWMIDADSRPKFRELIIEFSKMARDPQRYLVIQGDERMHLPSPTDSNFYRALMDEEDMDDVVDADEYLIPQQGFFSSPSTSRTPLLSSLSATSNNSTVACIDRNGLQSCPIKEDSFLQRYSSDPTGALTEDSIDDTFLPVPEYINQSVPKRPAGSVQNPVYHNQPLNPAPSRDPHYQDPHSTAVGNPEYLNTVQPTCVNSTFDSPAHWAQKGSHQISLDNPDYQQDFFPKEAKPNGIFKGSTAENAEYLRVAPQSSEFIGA
Description: as §1, §2, §3, §4, §5

ERK2 (h) (P42mapk) = ERK2 (h) (P42mapk) (Homo sapiens, UniProt P28482)
Description: as §1, §2, §3, §4, §5

EphA2 kinase (h) = EphA2 kinase (h) (Homo sapiens, UniProt P29317)
Chain of EphA2 kinase (h) (P29317 24-976): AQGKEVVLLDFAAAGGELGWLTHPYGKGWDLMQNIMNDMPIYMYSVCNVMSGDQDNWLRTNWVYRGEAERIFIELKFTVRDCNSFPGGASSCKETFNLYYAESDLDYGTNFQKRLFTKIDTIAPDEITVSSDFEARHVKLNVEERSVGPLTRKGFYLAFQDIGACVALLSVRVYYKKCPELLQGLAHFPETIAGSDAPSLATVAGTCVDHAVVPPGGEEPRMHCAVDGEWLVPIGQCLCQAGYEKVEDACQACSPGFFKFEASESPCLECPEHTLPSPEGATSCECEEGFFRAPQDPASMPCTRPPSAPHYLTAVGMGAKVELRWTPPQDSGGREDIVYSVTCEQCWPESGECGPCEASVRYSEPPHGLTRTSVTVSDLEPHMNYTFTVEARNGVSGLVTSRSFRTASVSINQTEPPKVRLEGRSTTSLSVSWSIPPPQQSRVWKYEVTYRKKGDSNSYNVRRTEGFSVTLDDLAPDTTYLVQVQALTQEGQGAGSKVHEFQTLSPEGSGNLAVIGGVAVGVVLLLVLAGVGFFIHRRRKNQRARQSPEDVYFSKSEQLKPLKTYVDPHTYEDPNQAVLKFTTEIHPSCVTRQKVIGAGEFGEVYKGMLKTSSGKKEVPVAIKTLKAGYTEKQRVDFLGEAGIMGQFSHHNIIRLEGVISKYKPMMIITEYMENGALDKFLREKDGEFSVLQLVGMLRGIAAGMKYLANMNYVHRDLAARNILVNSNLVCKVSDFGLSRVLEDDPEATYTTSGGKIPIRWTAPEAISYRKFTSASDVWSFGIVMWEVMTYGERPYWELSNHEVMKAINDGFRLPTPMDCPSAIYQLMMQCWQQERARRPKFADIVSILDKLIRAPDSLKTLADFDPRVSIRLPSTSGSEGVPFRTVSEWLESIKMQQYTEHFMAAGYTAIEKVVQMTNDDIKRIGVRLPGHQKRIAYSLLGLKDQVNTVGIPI
Description: as §1, §2, §3, §4, §5

EphA3 kinase (h) = EphA3 kinase (h) (Homo sapiens, UniProt P29320)
Chain of EphA3 kinase (h) (P29320 21-983): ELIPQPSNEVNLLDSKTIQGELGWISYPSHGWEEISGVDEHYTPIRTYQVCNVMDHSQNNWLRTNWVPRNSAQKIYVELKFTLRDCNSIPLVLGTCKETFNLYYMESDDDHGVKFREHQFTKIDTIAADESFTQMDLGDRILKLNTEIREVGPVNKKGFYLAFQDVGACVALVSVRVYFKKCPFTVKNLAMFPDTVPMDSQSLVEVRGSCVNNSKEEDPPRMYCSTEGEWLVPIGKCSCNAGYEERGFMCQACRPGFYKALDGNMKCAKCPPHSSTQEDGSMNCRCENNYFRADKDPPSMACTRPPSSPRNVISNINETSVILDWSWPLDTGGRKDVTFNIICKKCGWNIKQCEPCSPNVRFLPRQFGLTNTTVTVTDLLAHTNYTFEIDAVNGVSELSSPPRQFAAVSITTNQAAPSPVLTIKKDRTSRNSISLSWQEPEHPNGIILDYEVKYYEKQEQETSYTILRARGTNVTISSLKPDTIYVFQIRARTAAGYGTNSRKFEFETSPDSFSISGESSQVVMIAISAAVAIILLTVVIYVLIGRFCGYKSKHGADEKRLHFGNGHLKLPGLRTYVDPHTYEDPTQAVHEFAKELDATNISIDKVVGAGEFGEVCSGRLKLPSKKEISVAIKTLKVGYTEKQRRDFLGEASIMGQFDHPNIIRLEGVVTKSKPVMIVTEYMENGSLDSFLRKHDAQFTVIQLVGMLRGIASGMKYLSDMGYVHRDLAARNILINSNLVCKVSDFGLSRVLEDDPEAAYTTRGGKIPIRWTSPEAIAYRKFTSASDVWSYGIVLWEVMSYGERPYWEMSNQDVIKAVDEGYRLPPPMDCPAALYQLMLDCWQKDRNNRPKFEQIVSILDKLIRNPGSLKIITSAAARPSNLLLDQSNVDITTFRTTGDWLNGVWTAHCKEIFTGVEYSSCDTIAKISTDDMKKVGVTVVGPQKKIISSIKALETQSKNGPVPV
Description: as §1, §2, §3, §4, §5

FGFR2 kinase (h) = FGFR2 kinase (h) (Homo sapiens, UniProt P21802)
Chain of FGFR2 kinase (h) (P21802 22-821): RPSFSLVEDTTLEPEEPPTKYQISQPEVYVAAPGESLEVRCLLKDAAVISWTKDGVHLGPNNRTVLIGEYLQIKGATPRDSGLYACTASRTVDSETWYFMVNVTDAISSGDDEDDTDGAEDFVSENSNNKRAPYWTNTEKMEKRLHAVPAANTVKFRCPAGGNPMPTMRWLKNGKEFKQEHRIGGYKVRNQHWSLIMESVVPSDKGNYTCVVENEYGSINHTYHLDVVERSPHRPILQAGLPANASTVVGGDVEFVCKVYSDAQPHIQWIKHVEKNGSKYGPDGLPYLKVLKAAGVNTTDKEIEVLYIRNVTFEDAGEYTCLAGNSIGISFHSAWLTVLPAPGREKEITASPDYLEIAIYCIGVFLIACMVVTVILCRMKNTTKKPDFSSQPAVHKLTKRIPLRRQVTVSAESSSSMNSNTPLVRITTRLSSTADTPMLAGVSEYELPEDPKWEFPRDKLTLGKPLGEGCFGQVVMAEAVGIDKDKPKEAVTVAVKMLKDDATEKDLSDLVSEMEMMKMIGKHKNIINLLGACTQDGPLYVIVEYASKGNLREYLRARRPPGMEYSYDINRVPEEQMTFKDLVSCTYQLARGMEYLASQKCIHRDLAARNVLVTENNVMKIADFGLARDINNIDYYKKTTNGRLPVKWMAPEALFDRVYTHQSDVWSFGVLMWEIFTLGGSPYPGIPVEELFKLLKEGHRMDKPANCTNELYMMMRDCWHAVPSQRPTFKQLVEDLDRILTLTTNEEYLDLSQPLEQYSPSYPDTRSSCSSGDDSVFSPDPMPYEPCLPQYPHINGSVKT
Description: as §1, §2, §3, §4, §5

GSK3beta (h) = GSK3beta (h) (Homo sapiens, UniProt P49841)
Chain of GSK3beta (h) (P49841 whole entry): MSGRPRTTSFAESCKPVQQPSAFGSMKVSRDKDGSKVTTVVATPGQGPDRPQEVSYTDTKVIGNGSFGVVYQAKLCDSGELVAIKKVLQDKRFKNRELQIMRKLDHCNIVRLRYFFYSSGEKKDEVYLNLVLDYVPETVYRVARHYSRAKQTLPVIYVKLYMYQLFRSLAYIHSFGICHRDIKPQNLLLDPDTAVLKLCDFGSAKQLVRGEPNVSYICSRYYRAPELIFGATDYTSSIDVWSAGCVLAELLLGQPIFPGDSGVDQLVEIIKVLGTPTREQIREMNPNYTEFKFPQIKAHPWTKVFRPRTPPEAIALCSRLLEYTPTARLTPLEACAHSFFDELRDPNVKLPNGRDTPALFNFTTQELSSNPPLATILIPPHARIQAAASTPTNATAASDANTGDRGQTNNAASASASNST
Description: as §1, §2, §3, §4, §5

JAK3 (h) = JAK3 (h) (Homo sapiens, UniProt P52333)
Description: as §1, §2, §3, §4, §5

MNK2 (h) = MNK2 (h) (Homo sapiens, UniProt Q9HBH9)
Description: as §1, §2, §3, §4, §5

NEK2 (h) = NEK2 (h) (Homo sapiens, UniProt P51955)
Description: as §1, §2, §3, §4, §5

PAK2 (h) = PAK2 (h) (Homo sapiens, UniProt Q13177)
Description: as §1, §2, §3, §4, §5

PAK4 (h) = PAK4 (h) (Homo sapiens, UniProt O96013)
Chain of PAK4 (h) (O96013 whole entry): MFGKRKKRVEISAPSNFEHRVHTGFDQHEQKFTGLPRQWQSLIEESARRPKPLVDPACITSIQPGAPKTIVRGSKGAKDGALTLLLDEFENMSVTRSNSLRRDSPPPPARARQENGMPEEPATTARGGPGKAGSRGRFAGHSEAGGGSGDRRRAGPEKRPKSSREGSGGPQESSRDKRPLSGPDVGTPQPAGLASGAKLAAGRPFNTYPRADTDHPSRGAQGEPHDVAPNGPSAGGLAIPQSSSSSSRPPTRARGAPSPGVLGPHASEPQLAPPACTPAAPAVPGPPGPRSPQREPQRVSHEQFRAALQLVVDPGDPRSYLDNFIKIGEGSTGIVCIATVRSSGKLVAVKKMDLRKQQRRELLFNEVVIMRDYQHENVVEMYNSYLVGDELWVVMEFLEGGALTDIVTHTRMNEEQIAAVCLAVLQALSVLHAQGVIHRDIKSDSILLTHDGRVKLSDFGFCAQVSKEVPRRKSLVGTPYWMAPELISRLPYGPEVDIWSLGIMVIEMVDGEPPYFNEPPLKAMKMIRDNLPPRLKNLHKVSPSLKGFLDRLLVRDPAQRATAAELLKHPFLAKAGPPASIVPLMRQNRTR
Description: as §1, §2, §3, §4, §5

PDK1 (h) = PDK1 (h) (Homo sapiens, UniProt O15530)
Description: as §1, §2, §3, §4, §5

PKA (h) = PKA (h) (Homo sapiens, UniProt P17612)
Description: as §1, §2, §3, §4, §5

ROCK1 (h) = ROCK1 (h) (Homo sapiens, UniProt Q13464)
Description: as §1, §2, §3, §4, §5

SGK1 (h) = SGK1 (h) (Homo sapiens, UniProt O00141)
Description: as §1, §2, §3, §4, §5

## O=C(Nc1ccc(Nc2ccnc3ccccc23)cc1)c1cccc(Nc2ccnc3ccccc23)c1 [Compound 2a]
Abl kinase (h)
  inhibition at 10 µM: 0%
Akt1/PKBalpha (h)
  inhibition at 10 µM: -178%
CHK1 (h)
  inhibition at 10 µM: 16%
EGFR kinase (h)
  inhibition at 10 µM: 36%
ERK2 (h) (P42mapk)
  inhibition at 10 µM: 9%
EphA2 kinase (h)
  inhibition at 10 µM: -184%
EphA3 kinase (h)
  inhibition at 10 µM: -57%
FGFR2 kinase (h)
  inhibition at 10 µM: 1%
GSK3beta (h)
  inhibition at 10 µM: -72%
JAK3 (h)
  inhibition at 10 µM: -100%
MNK2 (h)
  inhibition at 10 µM: -6%
NEK2 (h)
  inhibition at 10 µM: -72%
PAK2 (h)
  inhibition at 10 µM: -150%
PAK4 (h)
  inhibition at 10 µM: -17%
PDK1 (h)
  inhibition at 10 µM: -169%
PKA (h)
  inhibition at 10 µM: 26%
ROCK1 (h)
  inhibition at 10 µM: -61%
SGK1 (h)
  inhibition at 10 µM: 28%
